According to the NIST ThermoML archive (doi:10.1016/j.jct.2015.07.042):

Legend:
[1] = activity coefficient (dimensionless); of the first substance listed, at infinite dilution; xn = mol fraction of the nth substance listed; details: 101 kPa, Liquid, Chromatography, x1 = 0

CCCCn1cc[n+](C)c1.[Cl-] [1-butyl-3-methylimidazolium chloride]
100 kPa
Details	mass density [kg/m3]
308.15 K, Metastable liquid, Vibrating tube method	1079.4
313.15 K, Metastable liquid, Vibrating tube method	1076.6
318.15 K, Metastable liquid, Vibrating tube method	1073.7
323.15 K, Metastable liquid, Vibrating tube method	1070.9
328.15 K, Metastable liquid, Vibrating tube method	1068.1
333.15 K, Metastable liquid, Vibrating tube method	1065.2
338.15 K, Metastable liquid, Vibrating tube method	1062.4
343.15 K, Vibrating tube method, Liquid	1059.6
348.15 K, Vibrating tube method, Liquid	1056.9
353.15 K, Vibrating tube method, Liquid	1054.3
358.15 K, Vibrating tube method, Liquid	1051.7
363.15 K, Vibrating tube method, Liquid	1049
368.15 K, Vibrating tube method, Liquid	1046.4
373.15 K, Vibrating tube method, Liquid	1043.9

CCCCn1cc[n+](C)c1.COP(=O)([O-])OC [1-butyl-3-methyl-1H-imidazolium dimethylphosphate]
100 kPa, Liquid, Vibrating tube method
Details	mass density [kg/m3]
293.15 K	1166.5
298.15 K	1163.2
303.15 K	1159.4
308.15 K	1156.2
313.15 K	1152.7
318.15 K	1149.5
323.15 K	1146.1
328.15 K	1143
333.15 K	1139.7
338.15 K	1136.5
343.15 K	1133.3
348.15 K	1130.1
353.15 K	1126.9
358.15 K	1123.7
363.15 K	1120.6
368.15 K	1117.4

CCCCn1cc[n+](C)c1.CS(=O)(=O)[O-] [1-butyl-3-methylimidazolium methanesulfonate]
100 kPa, Liquid, Vibrating tube method
Details	mass density [kg/m3]
333.15 K	1150.6
338.15 K	1147.4
343.15 K	1144.3
348.15 K	1141.2
353.15 K	1137.9
358.15 K	1134.9
363.15 K	1131.9
368.15 K	1128.8
373.15 K	1125.8

Cc1ccccc1C [1,2-dimethylbenzene] + CCCCn1cc[n+](C)c1.[Cl-]
[1]
Details	activity coefficient
358.15 K	11.6
368.15 K	11.7
378.15 K	11.9
388.15 K	12.3

CCCC=O [butanal] + CCCCn1cc[n+](C)c1.[Cl-]
[1]
Details	activity coefficient
358.15 K	5.24
368.15 K	5.31
378.15 K	5.43
388.15 K	5.54

CCC(C)(C)OC [2-methoxy-2-methylbutane] + CCCCn1cc[n+](C)c1.CS(=O)(=O)[O-]
[1]
Details	activity coefficient
358.15 K	23.8
368.15 K	24.2
378.15 K	24.7
388.15 K	25.3

CCCCCCCCCC [decane] + CCCCn1cc[n+](C)c1.COP(=O)([O-])OC
[1]
Details	activity coefficient
358.15 K	93.4
368.15 K	88.5
378.15 K	84.7
388.15 K	81.6

C1CCOC1 [tetrahydrofuran] + CCCCn1cc[n+](C)c1.CS(=O)(=O)[O-]
[1]
Details	activity coefficient
358.15 K	3.41
368.15 K	3.48
378.15 K	3.59
388.15 K	3.72

C=CCCCC [hex-1-ene] + CCCCn1cc[n+](C)c1.COP(=O)([O-])OC
[1]
Details	activity coefficient
358.15 K	13.9
368.15 K	13.7
378.15 K	13.4
388.15 K	13.2

CCCCCCCCCC [decane] + CCCCn1cc[n+](C)c1.CS(=O)(=O)[O-]
[1]
Details	activity coefficient
358.15 K	371
368.15 K	352
378.15 K	340
388.15 K	324

CC#N [acetonitrile] + CCCCn1cc[n+](C)c1.[Cl-]
[1]
Details	activity coefficient
358.15 K	1.12
368.15 K	1.16
378.15 K	1.21
388.15 K	1.28

CCC(=O)CC [pentan-3-one] + CCCCn1cc[n+](C)c1.CS(=O)(=O)[O-]
[1]
Details	activity coefficient
358.15 K	4.68
368.15 K	4.79
378.15 K	4.88
388.15 K	5.09
